Assay results taken from patent US20220298163A1, “BTK INHIBITORS WITH IMPROVED DUAL SELECTIVITY” (BEIGENE, LTD., priority 2017, published 2022).

Tests used:
[1] = molecular target: T1, Tec (Homo sapiens, UniProt P42680); assay: Biochemical kinase selectivity: IC50 determination of Tec; details: for IC50: TR-FRET, 280 μM ATP; for Fold of Tec/Btk: ratio of IC50 values
T1 sequence (P42680 1-631): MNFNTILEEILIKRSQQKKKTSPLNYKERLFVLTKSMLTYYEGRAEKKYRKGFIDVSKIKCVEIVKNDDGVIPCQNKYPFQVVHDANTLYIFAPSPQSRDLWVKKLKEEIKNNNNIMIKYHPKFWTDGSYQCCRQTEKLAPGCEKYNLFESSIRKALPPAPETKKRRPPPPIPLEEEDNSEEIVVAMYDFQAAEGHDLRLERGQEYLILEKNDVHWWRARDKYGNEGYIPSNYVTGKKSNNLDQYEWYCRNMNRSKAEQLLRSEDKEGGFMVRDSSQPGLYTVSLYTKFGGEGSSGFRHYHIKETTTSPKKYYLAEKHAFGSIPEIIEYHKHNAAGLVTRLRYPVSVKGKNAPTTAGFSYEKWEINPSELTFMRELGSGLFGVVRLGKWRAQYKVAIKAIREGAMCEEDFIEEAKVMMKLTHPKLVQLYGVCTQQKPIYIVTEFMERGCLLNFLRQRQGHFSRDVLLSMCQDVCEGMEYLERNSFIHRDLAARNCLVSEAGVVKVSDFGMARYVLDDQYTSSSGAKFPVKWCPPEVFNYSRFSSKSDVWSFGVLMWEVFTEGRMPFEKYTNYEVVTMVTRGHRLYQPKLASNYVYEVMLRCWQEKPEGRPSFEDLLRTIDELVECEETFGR

[2] = molecular target: T2, Btk kinase (aa2-659, Carna Biosciences) (Homo sapiens, UniProt Q06187); assay: Btk kinase enzymatic assay (TR-FRET); format: biochemical; details: for IC50: TR-FRET, 30 μM ATP, compound incubated with kinase 60 minutes
T2 construct: purchased Carna Biosciences
T2 sequence (Q06187 2-659): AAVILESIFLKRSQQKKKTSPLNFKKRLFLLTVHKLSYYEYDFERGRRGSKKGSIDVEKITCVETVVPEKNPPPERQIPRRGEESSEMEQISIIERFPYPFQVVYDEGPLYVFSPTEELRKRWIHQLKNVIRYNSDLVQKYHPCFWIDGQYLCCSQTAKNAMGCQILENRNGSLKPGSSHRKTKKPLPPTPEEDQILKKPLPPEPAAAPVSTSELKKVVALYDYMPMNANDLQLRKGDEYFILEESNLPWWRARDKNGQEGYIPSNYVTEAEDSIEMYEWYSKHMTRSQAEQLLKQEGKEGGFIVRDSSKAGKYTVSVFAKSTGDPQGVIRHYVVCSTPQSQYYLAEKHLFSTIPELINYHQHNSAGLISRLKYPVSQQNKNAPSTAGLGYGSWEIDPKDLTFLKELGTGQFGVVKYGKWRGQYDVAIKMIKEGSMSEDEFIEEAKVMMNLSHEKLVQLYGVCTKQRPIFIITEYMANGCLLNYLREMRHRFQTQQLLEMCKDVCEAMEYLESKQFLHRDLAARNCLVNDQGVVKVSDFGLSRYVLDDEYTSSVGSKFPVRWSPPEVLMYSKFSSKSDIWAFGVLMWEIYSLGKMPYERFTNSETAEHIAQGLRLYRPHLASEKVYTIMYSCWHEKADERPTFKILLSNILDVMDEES

IC50 [1] [nM]	Fold of Tec/Btk [1] [fold]	IC50 [2] [nM]	affinity / inhibitory activity for Btk (in words) [2]	Structure (SMILES)
491	3.5	–	–	C=CC(=O)N1CCC(C2CCNc3c(C(N)=O)c(-c4ccccc4)nn32)CC1 (stereo not drawn) [Example 144, reference compound]
–	–	41	–	C=CC(=O)N1CCC(C2CCNc3c(C(N)=O)c(-c4cc(OC)cc(OC)c4)nn32)CC1 (stereo not drawn) [Example A9, 7-(1-acryloylpiperidin-4-yl)-2-(3,5-dimethoxyphenyl)-4,5,6,7-tetrahydropyrazolo[1,5-a]pyrimidine-3-carboxamide]
–	–	51	–	C=CC(=O)N1CCC(C2CCNc3c(C(N)=O)c(-c4cc(OC)c(-c5ccccc5)c(OC)c4)nn32)CC1 (stereo not drawn) [Example A10, 7-(1-acryloylpiperidin-4-yl)-2-(2,6-dimethoxy-[1,1′-biphenyl]-4-yl)-4,5,6,7-tetrahydropyrazolo[1,5-a]pyrimidine-3-carboxamide]
–	–	> 100	–	C=CC(=O)N1CCC(C2CCNc3c(C(N)=O)c(-c4cc(OCC)c(C)c(OCC)c4)nn32)CC1 (stereo not drawn) [Example A13, 7-(1-acryloylpiperidin-4-yl)-2-(3,5-diethoxy-4-methylphenyl)-4,5,6,7-tetrahydropyrazolo[1,5-a]pyrimidine-3-carboxamide]
> 1000	–	–	–	C=CC(=O)N1CCC(C2CCNc3c(C(N)=O)c(-c4cc(OC)c(OC)c(OC)c4)nn32)CC1 (stereo not drawn) [Example A14, 7-(1-acryloylpiperidin-4-yl)-2-(3,4,5-trimethoxyphenyl)-4,5,6,7-tetrahydropyrazolo[1,5-a]pyrimidine-3-carboxamide]
1000	50	20	poor affinity for Btk	C=CC(=O)N1CCC(C2CCNc3c(C(N)=O)c(-c4cc(Cl)c(OC)c(Cl)c4)nn32)CC1 (stereo not drawn) [Example A15, 7-(1-acryloylpiperidin-4-yl)-2-(3,5-dichloro-4-methoxyphenyl)-4,5,6,7-tetrahydropyrazolo[1,5-a]pyrimidine-3-carboxamide]
–	–	28	–	C=CC(=O)N1CCC(C2CCNc3c(C(N)=O)c(-c4cc(Cl)c(C5CC5)c(Cl)c4)nn32)CC1 (stereo not drawn) [Example A24, 7-(1-acryloylpiperidin-4-yl)-2-(3,5-dichloro-4-cyclopropylphenyl)-4,5,6,7-tetrahydropyrazolo[1,5-a]pyrimidine-3-carboxamide]
–	–	41	–	C=CC(=O)N1CCC(C2CCNc3c(C(N)=O)c(-c4cc(Cl)c(Br)c(OC(F)(F)F)c4)nn32)CC1 (stereo not drawn) [Example A26, 7-(1-acryloylpiperidin-4-yl)-2-(4-bromo-3-chloro-5-(trifluoromethoxy)phenyl)-4,5,6,7-tetrahydropyrazolo[1,5-a]pyrimidine-3-carboxamide]
> 1000	–	18	–	C=CC(=O)N1CCC(C2CCNc3c(C(N)=O)c(-c4cc(OC)c(-c5cc[nH]n5)c(OC)c4)nn32)CC1 (stereo not drawn) [Example A27, 7-(1-acryloylpiperidin-4-yl)-2-(3,5-dimethoxy-4-(1H-pyrazol-3-yl)phenyl)-4,5,6,7-tetrahydropyrazolo[1,5-a]pyrimidine-3-carboxamide]
369	23	16	–	C=CC(=O)N1CCC(C2CCNc3c(C(N)=O)c(-c4cc(OC)c(-c5ccsc5)c(OC)c4)nn32)CC1 (stereo not drawn) [Example A28, 7-(1-acryloylpiperidin-4-yl)-2-(3,5-dimethoxy-4-(thiophen-3-yl)phenyl)-4,5,6,7-tetrahydropyrazolo[1,5-a]pyrimidine-3-carboxamide]
> 1000	–	16	–	C=CC(=O)N1CCC(C2CCNc3c(C(N)=O)c(-c4cc(C)c(C5CC5)c(C)c4)nn32)CC1 (stereo not drawn) [Example A29, 7-(1-acryloylpiperidin-4-yl)-2-(4-cyclopropyl-3,5-dimethylphenyl)-4,5,6,7-tetrahydropyrazolo[1,5-a]pyrimidine-3-carboxamide]
> 1000	–	53	–	C=CC(=O)N1CCC(C2CCNc3c(C(N)=O)c(-c4cc(C)cc(C)c4)nn32)CC1 (stereo not drawn) [Example A30, 7-(1-acryloylpiperidin-4-yl)-2-(3,5-dimethylphenyl)-4,5,6,7-tetrahydropyrazolo[1,5-a]pyrimidine-3-carboxamide]
–	–	> 100	–	C=CC(=O)N1CCC(C2CCNc3c(C(N)=O)c(-c4cc(OC)c(-c5c(C)noc5C)c(OC)c4)nn32)CC1 (stereo not drawn) [Example A31, 7-(1-acryloylpiperidin-4-yl)-2-(4-(3,5-dimethylisoxazol-4-yl)-3-dimethoxyphenyl)-4,5,6,7-tetrahydropyrazolo[1,5-a]pyrimidine-3-carboxamide]
–	–	52	–	C=CC(=O)N1CCC(C2CCNc3c(C(N)=O)c(-c4cc(OC)c(C5CCOCC5)c(OC)c4)nn32)CC1 (stereo not drawn) [Example A32, 7-(1-acryloylpiperidin-4-yl)-2-(3,5-dimethoxy-4-(tetrahydro-2H-pyran-4-yl)phenyl)-4,5,6,7-tetrahydropyrazolo[1,5-a]pyrimidine-3-carboxamide]
253	23	11	–	C=CC(=O)N1CCC(C2CCNc3c(C(N)=O)c(-c4cc(OC)c(C5=CCCCC5)c(OC)c4)nn32)CC1 (stereo not drawn) [Example A40, 7-(1-acryloylpiperidin-4-yl)-2-(2,6-dimethoxy-2′,3′,4′,5′-tetrahydro-[1,1′-biphenyl]-4-yl)-4,5,6,7-tetrahydropyrazolo[1,5-a]pyrimidine-3-carboxamide]
–	–	16	–	C=CC(=O)N1CCC(C2CCNc3c(C(N)=O)c(-c4cc(Cl)c(C5CC5)c(OCC)c4)nn32)CC1 (stereo not drawn) [Example A48, 7-(1-acryloylpiperidin-4-yl)-2-(3-chloro-4-cyclopropyl-5-ethoxyphenyl)-4,5,6,7-tetrahydropyrazolo[1,5-a]pyrimidine-3-carboxamide]
–	–	18	–	C=CC(=O)N1CCC(C2CCNc3c(C(N)=O)c(-c4cc(Cl)c(C)c(OCC)c4)nn32)CC1 (stereo not drawn) [Example A49, 7-(1-acryloylpiperidin-4-yl)-2-(3-chloro-5-ethoxy-4-methylphenyl)-4,5,6,7-tetrahydropyrazolo[1,5-a]pyrimidine-3-carboxamide]
136	–	–	–	C=CC(=O)N1CCC(C2CCNc3c(C(N)=O)c(-c4cc(OC)c(C=C)c(OC)c4)nn32)CC1 (stereo not drawn) [Example A51, 7-(1-acryloylpiperidin-4-yl)-2-(3,5-dimethoxy-4-vinylphenyl)-4,5,6,7-tetrahydropyrazolo[1,5-a]pyrimidine-3-carboxamide]
–	–	13	–	C=CC(=O)N1CC(C2CCNc3c(C(N)=O)c(-c4cc(Cl)c(C)c(Cl)c4)nn32)C1 (stereo not drawn) [Example B1, 7-(1-acryloylazetidin-3-yl)-2-(3,5-dichloro-4-methylphenyl)-4,5,6,7-tetrahydropyrazolo[1,5-a]pyrimidine-3-carboxamide]
–	–	34	–	C=CC(=O)N1CC2CNc3c(C(N)=O)c(-c4cc(OC)c(OC)c(OC)c4)nn3C2C1 (stereo not drawn) [Example C2, 7-acryloyl-2-(3,4,5-trimethoxyphenyl)-5,5a,6,7,8,8a-hexahydro-4H-pyrazolo[1,5-a]pyrrolo[3,4-e]pyrimidine-3-carboxamide]
–	–	10	–	C=CC(=O)N1CCC2C(CNc3c(C(N)=O)c(-c4cc(OC)c(C)c(OC)c4)nn32)C1 (stereo not drawn) [Example D1, 7-acryloyl-2-(3,5-dimethoxy-4-methylphenyl)-4,5,5a,6,7,8,9,9a-octahydropyrazolo[1,5-a]pyrido[3,4-e]pyrimidine-3-carboxamide]
> 1000	–	63	–	C=CC(=O)N1CCC2Nc3c(C(N)=O)c(-c4cc(OC)c(C)c(OC)c4)nn3CC2C1 (stereo not drawn) [Example D2, 7-acryloyl-2-(3,5-dimethoxy-4-methylphenyl)-4,4a,5,6,7,8,8a,9-octahydropyrazolo[1,5-a]pyrido[4,3-d]pyrimidine-3-carboxamide]
–	–	33	–	C=CC(=O)NCC1CCNc2c(C(N)=O)c(-c3cc(OC)c(C)c(OC)c3)nn21 (stereo not drawn) [Example E1, 7-(acrylamidomethyl)-2-(3,5-dimethoxy-4-methylphenyl)-4,5,6,7-tetrahydropyrazolo[1,5-a]pyrimidine-3-carboxamide]
–	–	> 100	–	C=CC(=O)N1CCC2(CC1)CC(C1CCNc3c(C(N)=O)c(-c4cc(OC)c(C)c(OC)c4)nn31)C2 (stereo not drawn) [Example F1, 7-(7-acryloyl-7-azaspiro[3.5]nonan-2-yl)-2-(3,5-dimethoxy-4-methylphenyl)-4,5,6,7-tetrahydropyrazolo[1,5-a]pyrimidine-3-carboxamide]
–	–	12	–	C=CC(=O)N1CC2CCC(C1)C2C1CCNc2c(C(N)=O)c(-c3cc(OC)c(C)c(OC)c3)nn21 (stereo not drawn) [Example G1, 7-(3-acryloyl-3-azabicyclo[3.2.1]octan-8-yl)-2-(3,5-dimethoxy-4-methylphenyl)-4,5,6,7-tetrahydropyrazolo[1,5-a]pyrimidine-3-carboxamide]
–	–	35	–	C=CC(=O)N1CC2(CC(C3CCNc4c(C(N)=O)c(-c5cc(OC)c(C)c(OC)c5)nn43)C2)C1 (stereo not drawn) [Example H1, 7-(2-acryloyl-2-azaspiro[3.3]heptan-6-yl)-2-(3,5-dimethoxy-4-methylphenyl)-4,5,6,7-tetrahydropyrazolo[1,5-a]pyrimidine-3-carboxamide]
–	–	22	–	C=CC(=O)N1CCC(C2CCNc3c(C(N)=O)c(-c4ccc(Cl)cc4)nn32)CC1 (stereo not drawn) [reference compound]
